From patent US20240342127A1, “METHODS OF TREATING COPPER METABOLISM-ASSOCIATED DISEASES OR DISORDERS” (Alexion Pharmaceuticals, Inc., priority 2021, published 2024)

Experiments:
participants with WD = system: participants with WD
Procedure: Incremental dose increases are permitted, but not required, up to a maximum of 60 mg/day.
In summary, the maximum daily dose permitted in this study (Study 302) has been set as […].

[1] = in vivo
patients with WD = settings: cited from earlier work
[2] = compared with other treatments; cited from earlier work

Bis-choline tetrathiomolybdate [BC-TTM]
copper mobilization from tissue to blood compared with SoC, as measured by daily mean dNCC AUEC0-48 weeks (participants with WD; 48-week Primary Evaluation Period, overall mean daily dose 15.6 mg): approximately 3 fold | participants with Grade 2 ALT elevations during treatment (participants with WD; in vivo): approximately 15% | effect of age, sex or body weight on PK [1]: not significant covariates | reduction of mean serum non-ceruloplasmin-bound Cu (NCC) compared with baseline (patients with WD; Week 24, 28 patients with WD, monotherapy): 72% | most frequently reported drug-related AEs (patients with WD; human, in vivo): changes in hematological parameters, fatigue, sulphur eructations, and other gastrointestinal symptoms | paradoxical neurological worsening upon treatment initiation (patients with WD; human, in vivo): No paradoxical neurological worsening was observed | patients with reversible liver function test elevations (patients with WD; human, in vivo): 39% | severity of most reported adverse events (patients with WD; human, in vivo): mild (Grade 1) to moderate (Grade 2) | tolerability of treatment (patients with WD; human, in vivo): generally well-tolerated | binding affinity to copper [2]: greater binding affinity to copper compared with other treatments
